The target of one assay is T1, NaCatA (Novosphingobium aromaticivorans, UniProt A4XFH8).
T1 construct: gene Saro_3830; pVP302K (8x His tag), expressed in E. coli B834 pRARE2 with Fe(II)SO4, Ni-NTA purified
T1 sequence (A4XFH8 1-298): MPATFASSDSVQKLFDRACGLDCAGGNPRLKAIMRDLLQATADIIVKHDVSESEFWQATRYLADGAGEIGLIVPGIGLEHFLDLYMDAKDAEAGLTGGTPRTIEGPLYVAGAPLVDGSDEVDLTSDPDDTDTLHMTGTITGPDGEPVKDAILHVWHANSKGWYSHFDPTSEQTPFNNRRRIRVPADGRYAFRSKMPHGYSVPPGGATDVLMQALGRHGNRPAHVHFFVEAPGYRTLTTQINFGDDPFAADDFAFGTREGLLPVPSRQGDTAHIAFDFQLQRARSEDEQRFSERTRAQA
The assay can be described thus: ccMA formation by absorbance at […] nm. The assay is classed as biochemical. The following applies: 100 µM catechol, 0.5 µM enzyme, 50 mM HEPES, 150 mM NaCl pH 7.5, 28°C; O2 co-substrate.

For the next assay, the target named is T2, NadCD (Novosphingobium aromaticivorans, UniProt A4XDW1).
T2 construct: gene Saro_3877; Saro_3877-78 cloned together in pVP302K (8x His tag), expressed in E. coli B834 pRARE2, Ni-NTA purified; with protocatechuate decarboxylase subunit D (4-hydroxybenzoate decarboxylase subunit D-like)
T2 sequence (A4XDW1 1-486): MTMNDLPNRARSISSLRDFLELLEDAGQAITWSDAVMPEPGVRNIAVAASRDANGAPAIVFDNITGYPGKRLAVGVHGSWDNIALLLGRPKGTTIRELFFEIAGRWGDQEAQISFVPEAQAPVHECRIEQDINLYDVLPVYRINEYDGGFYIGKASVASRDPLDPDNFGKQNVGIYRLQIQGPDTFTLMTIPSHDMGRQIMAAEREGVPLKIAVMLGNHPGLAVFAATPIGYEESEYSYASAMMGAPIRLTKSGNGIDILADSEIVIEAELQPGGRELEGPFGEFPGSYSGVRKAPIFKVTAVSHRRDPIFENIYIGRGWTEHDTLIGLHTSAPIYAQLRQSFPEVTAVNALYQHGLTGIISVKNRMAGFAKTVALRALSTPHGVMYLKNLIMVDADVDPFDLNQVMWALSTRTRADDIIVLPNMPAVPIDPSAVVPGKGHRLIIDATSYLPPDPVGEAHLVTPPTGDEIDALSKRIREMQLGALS
T2 sequence (A4XDW2 1-74 partner): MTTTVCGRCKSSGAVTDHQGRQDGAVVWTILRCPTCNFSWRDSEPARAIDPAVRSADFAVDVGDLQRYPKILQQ
The assay can be described thus: PCA to catechol conversion by LCMS. Type of assay: biochemical. The following applies: 1 mM PCA, 0.1 µM enzyme, crude prFMN-containing E. coli lysate needed, 50 mM HEPES, 150 mM NaCl pH 7.5, room temperature (18 h endpoint assay).

Take `Oc1ccccc1O` [catechol]: the “ccMA formation by absorbance at 260 nm” value on NaCatA is “NaCatA catalyzes the intradiol cleavage of catechol to produce ccMA in vitro”.

Turning to `O=C(O)c1ccc(O)c(O)c1` [PCA], on NadCD, the “PCA to catechol conversion by LCMS” value is “NadCD was mixed with PCA and with the crude E. coli lysate that contained prFMN”.

The values above are taken from PMC10807440, “Engineering Novosphingobium aromaticivorans to produce cis,cis-muconic acid from biomass aromatics” (Applied and Environmental Microbiology, 2023).
